Results from ChEMBL document CHEMBL1268893, “A practical deuterium-free NMR method for the rapid determination of 1-octanol/water partition coefficients of pharmaceutical agents” (Bioorg Med Chem Lett, 2010).

Key:
[1] = Octanol-water partition coefficient, log P of the compound; format: physicochemical
[2] = Octanol-water partition coefficient, log P of the compound by deuterium-free NMR method; format: physicochemical
[3] = Octanol-water partition coefficient, log P of the compound at pH 7.0
[4] = Octanol-water partition coefficient, log P of the compound after partitioning between 0.1 M NaOH and 1-octanol by deuterium-free NMR method; format: physicochemical; conditions: 1-octanol/0.1 M NaOH

Row | Structure (SMILES) | logP [1] | logP [2] | logD [3] | logP [4]
1 | CC(=O)Nc1ccc(O)cc1 [ACETAMINOPHEN] | 0.33 | 0.29 | – | –
2 | CC(=O)Oc1ccccc1C(=O)O [ASPIRIN] | – | 1.15 | – | –
3 | CC[C@H]1OC(=O)[C@H](C)[C@@H](O[C@H]2C[C@@](C)(OC)[C@@H](O)[C@H](C)O2)[C@H](C)[C@@H](O[C@@H]2O[C@H](C)C[C@H](N(C)C)[C@H]2O)[C@](C)(O)C[C@@H](C)C(=O)[C@H](C)[C@@H](O)[C@]1(C)O [ERYTHROMYCIN] | 2.54 | 2.01 | – | –
4 | O=C1CN(/N=C/c2ccc([N+](=O)[O-])o2)C(=O)N1 [NITROFURANTOIN] | – | -0.36 | -0.68 | –
5 | CCOc1ccc(NC(C)=O)cc1 [PHENACETIN] | – | 1.45 | – | –
6 | CCN(CC)CCOC(=O)c1ccc(N)cc1 [PROCAINE] | 0.88 | – | – | 0.9
